Measured values reported in article PMC11513893, “Discovery of Oral Degraders of the ROS1 Fusion Protein with Potent Activity against Secondary Resistance Mutations” (Journal of Medicinal Chemistry, 2024).
Where two headings read alike, the source gives them in different places.

Tests used:
[1] = test system: Ba/F3 CD74-ROS1 non mutant; experiment: Antiproliferation assay (Alamar Blue, 72 h); type: cell-based, mouse; conditions: cell growth inhibition
[2] = test system: Ba/F3 ROS1-G2032R; experiment: Antiproliferation assay; type: cell-based, mouse; conditions: Ba/F3 cells, cell growth inhibition, 72 h
[3] = test system: ROS1; experiment: ROS1 degradation in Ba/F3 cells (WES immunoblotting); type: cell-based; conditions: for DC50: concentration needed to reduce ROS1 protein by 50%, Ba/F3 cells; for Dmax (%) (ROS1): maximal degradation of ROS1 in Ba/F3 cells
Method in brief: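 ROS1 and phospho-ROS1 (Tyr2274/2334) in Ba/F3 lysates quantified by capillary immunoassay (WES) with chemiluminescent detection, duplicate experiments. Levels expressed as AUC of the chemiluminescence peak.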

[4] = Log P measurement; type: physicochemical
Text: An important physicochemical property for a PROTAC molecule is its lipophilicity that largely dictates its pharmaceutical performance such as absorption, permeability, and distribution.

[5] = Metabolic stability in rat microsomes; type: in vitro ADME; conditions: 250 nM compound, NADPH, 37 °C
Protocol: (§1) Pooled human and rat microsomes were prepared and stored at −80 °C prior to use. A master-mix containing microsome, phosphate buffer, and test compound (9 series) solution was made as follows: (1) 3 μL of microsome (20 mg/mL) was diluted with mixed 30 μL of potassium phosphate buffer (pH 7.4; 10×) and 246 μL of water; (2) 3 μL of 25 μM drug solution was added to the microsome; (3) the master solution was prewarmed at 37 °C for 5 min. NADPH solution A (15 μL) and NADPH solution B (3 μL) from Promega were added to the above-mentioned master solution to initiate the reaction. The final concentration of 9 compounds in the reaction system was 250 nM. An aliquot of 20 μL was pipetted from the reaction solution and stopped by the addition of 180 μL of cold MeCN containing 25 ng of Tamoxifen-(N,N-dimethyl-13C2)-15N as an internal standard at the designated time points (0, 5, 15, 30, 45, and 60 min). The incubation solution was vortexed-mixed (800 rpm/10 min) and centrifuged at 3500 rpm for 10 min to precipitate proteins. The supernatant was collected and used for the LC/MS/MS analysis. The natural log of the remaining percentage of the test compound was plotted against time and the gradient of the line was determined.

[6] = Metabolic stability in human microsomes; type: in vitro ADME; conditions: 250 nM compound, NADPH, 37 °C
Protocol: as §1

[7] = Pharmacokinetics study in Sprague–Dawley rats; type: in vivo; conditions: rat
Protocol: Four to 6 weeks old Sprague–Dawley rats [Crl: CD (SD)] (SPF/VAF) were purchased from Charles River (Wilmington MA). Animals were quarantined/acclimated for 2–6 weeks prior to dose initiation. Sprague–Dawley rats were given oral administration of test compounds (20% PG, 5% Solutol, and 75% of 20% HP-β-CD in water) at different dose levels. After treatment with the compounds, whole blood was collected from each study animal by puncture of the tail vein (0.4 mL of whole blood from rats) into tubes containing K2EDTA at each time point. The plasma samples were divided into 2 aliquots (approximately equal in volume) and stored frozen at −75 ± 15 °C within 2 h of the collection until analysis.
The stock solution of the test compound (0.01 M) in DMSO was prepared and stored at −20 ± 5 °C. The desired serial concentrations of working reference analyte solutions were achieved by diluting a stock analyte solution with 50% acetonitrile (0.1% formic acid) in water solution. The bioanalytical LC–MS/MS method was developed for quantitative determination of each test compound in Sprague–Dawley rat plasma with acceptable selectivity, sensitivity, calibration curve, precision, and accuracy. The analytical method is applicable for the determination of test compounds in Sprague–Dawley rat plasma with a lower limit of quantification of 10.0 ng/mL and an upper limit of quantification of 5000 ng/mL. Five microliters of diluted supernatant was injected into the LC–MS/MS system (TSQ Quantis) and a SynergiTM 4 μm Fusion-RP 80 Å (50 × 2 mm) column using gradient elution and a Triple Quad mass spectrometer) for quantitative analysis. The mobile phases used were 0.1% formic acid in deionized water and 0.1% formic acid in acetonitrile. The pharmacokinetic parameters T1/2 (the biological half-life), Cmax (maximal concentration), Tmax (time at which Cmax is observed), and AUC (area under the plasma concentration–time curve) were calculated from the plasma concentration versus time data using WinNonlin (PhoenixTM, version 8.1, Mountain View, CA, USA).

[8] = Pharmacokinetics study in Sprague–Dawley rats; type: in vivo; conditions: rat, 2 mg/kg iv
[9] = test system: Ba/F3 ROS1 D2033N; experiment: Antiproliferation assay; type: cell-based; conditions: Mus musculus, BaF3; Ba/F3 cells, cell growth inhibition
Text: (§2) To assess targeted degradation of ROS1 fusion proteins, we first established a mouse pro-B cell line Ba/F3 as a model expressing the CD74-ROS1 oncogene or CD74-ROS1 with clinically observed secondary/tertiary mutations. The Ba/F3 cell line is dependent on interleukin-3 for survival and proliferation. Upon transduction of oncogenic ROS1, Ba/F3 cells become independent of interleukin-3 but dependent on the transduced driver gene.
(§3) Ba/F3 immortalized murine bone marrow–derived pro-B cells were obtained from Creative Biogene (Shirley, NY) and cultured in RPMI supplemented with 10% FBS and IL3 (0.5 ng/mL). Ba/F3 cells expressing ROS1 variants were maintained in RPMI supplemented with 10% FBS and puromycin (0.7 mg/mL). […] Each compound was dissolved in DMSO and serially diluted in RPMI for cell culture experiments.
(§4) To assess the 72 h effect of drug treatment on cell proliferation, 2000 to 3000 cells were plated in replicates of three in 96-well plates. The plates were placed in an incubator at 37 °C, 5% CO2 for 72 h. Following drug treatments, the cells were incubated with the Alamar Blue Assay reagent (BioRad), 5 μL each well for 4 h at 37 °C and 5% CO2. Luminescence was measured on a multiplate reader and analyzed. […] IC50 values were determined using a nonlinear regression model with a sigmoidal dose response in GraphPad. The data were collected based on triplicate experiments, and presented as mean ± SD.
(§5) The resulting virus was used to infect Ba/F3 cells. After retroviral infection, Ba/F3 cells were selected by incubation with puromycin (0.7 mg/mL) for 2 weeks. For Ba/F3 cells infected by the CD74–ROS1 variants, IL3 was withdrawn from the culture medium at least 2 weeks before the experiments.

[10] = test system: Ba/F3 ROS1 G2032R-F2075V; experiment: Antiproliferation assay; type: cell-based; conditions: Mus musculus, BaF3; Ba/F3 cells, cell growth inhibition
Text: as §2, §3, §4, §5

[11] = test system: Ba/F3 ROS1 L2026M; experiment: Antiproliferation assay; type: cell-based; conditions: Mus musculus, BaF3; Ba/F3 cells, cell growth inhibition
Text: as §2, §3, §4, §5

[12] = test system: Ba/F3 ROS1 L2086F; experiment: Antiproliferation assay; type: cell-based; conditions: Mus musculus, BaF3; Ba/F3 cells, cell growth inhibition
Text: as §2, with “gene. The Ba/F3 models have been effectively employed in the discovery and preclinical development of next generation ROS1 inhibitors.[11],[14],[15] We have tested ROS1 inhibitors against these Ba/F3 cells to validate their sensitivity and resistance to ROS1 inhibition.” for “gene.”
Ba/F3 immortalized murine bone marrow–derived pro-B cells were obtained from Creative Biogene (Shirley, NY) and cultured in RPMI supplemented with 10% FBS and IL3 (0.5 ng/mL). Ba/F3 cells expressing ROS1 variants were maintained in RPMI supplemented with 10% FBS and puromycin (0.7 mg/mL). Crizotinib, ceritinib, brigatinib, repotrectinib, and lorlatinib were purchased from MedChem Express. Each compound was dissolved in DMSO and serially diluted in RPMI for cell culture experiments.
as §4
as §5, with “cDNA encoding CD74-ROS1 or mutant CD74–ROS1 was cloned into retroviral expression vectors (pLenti), and viruses were generated in HEK293T cells by transfecting with packaging plasmids. The” for “The”

[13] = Mus musculus, BaF3, 72 h, Ba/F3 cells
[14] = Sprague-Dawley [Crl: CD (SD)], plasma, 10 mg/kg po

## COc1cc(N2CCN(CC3CN(c4ccc5c(c4)C(=O)N(C4CCC(=O)NC4=O)C5=O)C3)CC2)ccc1Nc1ncc(Cl)c(Nc2ccccc2P(C)(C)=O)n1 (centres unmarked) [9b, 5-(3-((4-(4-((5-Chloro-4-((2-(dimethylphosphoryl)phenyl)amino)pyrimidin-2-yl)amino)-3-methoxyphenyl)piperazin-1-yl)methyl)azetidin-1-yl)-2-(2,6-dioxopiperidin-3-yl)isoindoline-1,3-dione]
[1]; Ba/F3 cells
  IC50: 13 ± 2 nM
[2]
  IC50: 153 ± 20 nM
[3]
  DC50: 10 nM
  Dmax (%) (ROS1): 96%
[4]
  log P: 2.84
[5]
  metabolic stability in rat microsomes Clint: 13.8 µL/min/mg
  metabolic stability in rat microsomes T1/2: 1.675 h
[6]
  metabolic stability in human microsomes Clint: 119.5 µL/min/mg
  metabolic stability in human microsomes T1/2: 0.483 h
[7]; 10 mg/kg po
  AUC (po): 41,622 h·ng/mL
  Cmax: 4582 ng/mL
  T1/2: 4.11 h
  Tmax: 3 h
[7]; 10 mg/kg po vs 2 mg/kg iv
  % F: 16.5%
[8]
  AUC (iv): 50,451 h·ng/mL

## COc1cc(N2CCN(CC3CCN(c4ccc5c(c4)C(=O)N(C4CCC(=O)NC4=O)C5=O)CC3)CC2)ccc1Nc1ncc(Cl)c(Nc2ccccc2P(C)(C)=O)n1 (centres unmarked) [9c, 5-(4-((4-(4-((5-Chloro-4-((2-(dimethylphosphoryl)phenyl)amino)pyrimidin-2-yl)amino)-3-methoxyphenyl)piperazin-1-yl)methyl)piperidin-1-yl)-2-(2,6-dioxopiperidin-3-yl)isoindoline-1,3-dione]
[1]; [13]
  IC50: 19 ± 8 nM
[2]; Mus musculus, BaF3
  IC50: 236 ± 28 nM
[3]
  DC50: 22 nM
  Dmax (%) (ROS1): 95%
[4]
  logP: 2.35
[5]; rat, pooled rat microsomes, pH 7.4
  microsomal CLint at 1 h, 0.25 µM: 77 µL/min/mg
[5]; rat, pooled rat microsomes, pH 7.4, read-out: metabolic stability in rat microsomes T1/2
  half-life at 1 h, 0.25 µM: 0.3 h
[6]; human, pooled human microsomes, pH 7.4
  microsomal CLint at 1 h, 0.25 µM: 87 µL/min/mg
[6]; human, pooled human microsomes, pH 7.4, read-out: metabolic stability in human microsomes T1/2
  half-life at 1 h, 0.25 µM: 0.663 h
[7]; Sprague-Dawley [Crl: CD (SD)], plasma, 2 mg/kg iv, read-out: AUC (iv)
  AUC: 29400 ng·h/mL
[7]; [14]
  Cmax at 24 h: 2340 ng/mL
  half-life: 6.81 h
[7]; Sprague-Dawley [Crl: CD (SD)], plasma, 10 mg/kg po vs 2 mg/kg iv
  bioavailability: 21.6%
[7]; Sprague-Dawley [Crl: CD (SD)], plasma, 10 mg/kg po, read-out: AUC (po)
  AUC: 31700 ng·h/mL
[7]; Sprague-Dawley [Crl: CD (SD)], plasma, 10 mg/kg po, read-out: Tmax
  Tmax: 3 h

## COc1cc(N2CCC(N3CCN(C(=O)CC4CCN(c5ccc(NC6CCC(=O)NC6=O)cc5)CC4)CC3)CC2)ccc1Nc1ncc(Cl)c(Nc2ccccc2P(C)(C)=O)n1 (centres unmarked) [9u, 3-((4-(4-(2-(4-(1-(4-((5-Chloro-4-((2-(dimethylphosphoryl)phenyl)amino)pyrimidin-2-yl)amino)-3-methoxyphenyl)piperidin-4-yl)piperazin-1-yl)-2-oxoethyl)piperidin-1-yl)phenyl)amino)piperidine-2,6-dione]
[1]; [13]
  IC50: 82 ± 9 nM
[2]; Mus musculus, BaF3
  IC50: > 10000 nM
[3]
  DC50: 101 nM
  Dmax (%) (ROS1): 37%

## COc1cc(N2CCC(N3CCN(C(=O)C4CCN(c5ccc(NC6CCC(=O)NC6=O)cc5)CC4)CC3)CC2)ccc1Nc1ncc(Cl)c(Nc2ccccc2P(C)(C)=O)n1 (centres unmarked) [9v, 3-((4-(4-(4-(1-(4-((5-Chloro-4-((2-(dimethylphosphoryl)phenyl)amino)pyrimidin-2-yl)amino)-3-methoxyphenyl)piperidin-4-yl)piperazine-1-carbonyl)piperidin-1-yl)phenyl)amino)piperidine-2,6-dione]
[1]; [13]
  IC50: 63 ± 24 nM
[2]; Mus musculus, BaF3
  IC50: > 10000 nM
[3]
  DC50: 76 nM
  Dmax (%) (ROS1): 42%

## CN1CCN(c2ccc(C(=O)Nc3n[nH]c4ccc(Cc5cc(F)cc(F)c5)cc34)c(NC3CCOCC3)c2)CC1 [entrectinib]
[1]; Mus musculus, BaF3, Ba/F3 cells
  IC50: 2.4 ± 0.4 nM
[2]; Mus musculus, BaF3
  IC50: 980 ± 77 nM
[9]
  IC50: 132 ± 15 nM
[10]
  IC50: > 2000 nM
[11]
  IC50: 56 ± 7 nM
[12]
  IC50: 506 ± 97 nM
